Entries after “also recorded” stand apart in the source; their conditions may differ. Where no end group is shown, it is not given here. [ ]: non-standard residue; d: D form. Nba = nitrobenzyl amine (quencher); 2Abz = Nc1ccccc1C(=O)O

Series [1] concerns the target T1, LecA (Pseudomonas aeruginosa, UniProt Q05097).
T1 construct: made in house
Briefly: Surface plasmon resonance with LecA. Format: binding. The procedure: Surface plasmon resonance experiments were performed on a BIACORE X100 instrument (GE Healthcare) at 25° C. as described by Zahorska et. al. 2020. Averages and standard deviations were calculated from three independent experiments.
On the technique in general: SPR reads the build-up and loss of mass on a sensor chip optically.

The target of series [2] is T1, LecA. Briefly: Isothermal titration calorimetry with LecA. The class given is binding. Here is the method: Isothermal titration calorimetry was performed on an iTC200 (Malvern Panalytical) and the data were analyzed using Microcal Origin software (Malvern Panalytical). LecA in the cell was titrated with ligand in TBS/Ca^2+ buffer supplemented with 5% DMSO at 25° C. Steep titration slopes were the result of high amount of protein present and the high binding affinity of the ligand (high ‘value of c’).
Isothermal titration calorimetry was performed on an iTC200 (Malvern Panalytical) and the data were analyzed using Microcal Origin software (Malvern Panalytical).
For orientation: Isothermal titration calorimetry measures the heat released or taken up as one component is titrated into another.

Series [3] deals with T1, LecA. Briefly: Direct titration of fluorescent ligand with LecA in fluorescence polarization assay. Format: binding. Background: Polarisation of emitted light reports the rotation of a fluorescent probe.
The nature of series [4]: Stability in aqueous buffer. The class given is physicochemical. The following applies: Tris buffer (TBS/Ca2+), after 24 h.
Series [5] is described as follows: Cleavage / stability in PA14-filtrate without human blood plasma. Format: in vitro ADME, Pseudomonas aeruginosa PA14. Conditions: up to 24 h. Here is the method: P. aeruginosa PA14 was streaked on LB-agar plates (1% agar) from glycerol stocks and incubated at 37° C. overnight. 2-5 colonies were picked and dispersed in 10 mL LB (10 g/L trypton, 10 g/L NaCl, 5 g/L yeast extracts). This dispersion was incubated overnight at 37° C., 180 rpm under high humidity. The culture was centrifuged (4000 ref, room temperature, 10 min) and the supernatant was filtered (0.22 m pore size). […]
A 1 mM solution of the studied compound was prepared in PBS (150 mM NaCl, 2.6 mM KCl, 1.4 mM KH2PO4, 10 mM Na2HPO4, pH 7.4) with 20% DMSO. 50 μL of this solution was diluted in 950 μL matrix or human plasma (spiked with 10% LB) on ice. After brief vortex, 100 μL were immediately treated with 100 μL ice-cold MeCN (spiked with […] diphenhydramine as internal standard). The rest of the solution was incubated at 37° C. and 500 rpm in an eppendorf thermomixer. At various time points (30, 60, 120, 180 min), 100 L sample were taken and treated as described above. […] The AUC of the parent drug and its cleavage products and the internal standard was quantified using Compass QuantAnalysis quantification software. The relative AUC was calculated by AUC (compound)/AUC(ISTD). Procaine was used as a positive control as it readily degrades in human plasma.

Series [6] addresses T2, MMP-2 (Homo sapiens, UniProt P08253).
T2 sequence (P08253 110-660): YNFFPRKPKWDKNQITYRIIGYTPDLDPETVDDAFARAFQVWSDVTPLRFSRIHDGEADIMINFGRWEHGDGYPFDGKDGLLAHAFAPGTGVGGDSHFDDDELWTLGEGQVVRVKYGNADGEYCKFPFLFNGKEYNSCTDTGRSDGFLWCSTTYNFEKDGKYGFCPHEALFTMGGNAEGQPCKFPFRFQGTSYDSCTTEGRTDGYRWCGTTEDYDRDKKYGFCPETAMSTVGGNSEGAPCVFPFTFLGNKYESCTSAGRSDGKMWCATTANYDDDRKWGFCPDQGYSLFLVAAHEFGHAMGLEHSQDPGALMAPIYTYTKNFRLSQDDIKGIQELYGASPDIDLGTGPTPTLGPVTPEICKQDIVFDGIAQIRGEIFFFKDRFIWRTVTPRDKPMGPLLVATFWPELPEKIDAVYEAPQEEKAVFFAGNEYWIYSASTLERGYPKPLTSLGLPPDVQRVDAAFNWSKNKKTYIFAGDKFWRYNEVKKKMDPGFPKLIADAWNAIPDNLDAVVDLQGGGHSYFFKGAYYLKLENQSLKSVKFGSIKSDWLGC
Briefly: FRET-based cleavage assay with MMP-2. The class given is biochemical. Conditions: serial dilution of activated MMP-2.
Method: MMP-2 (50 μL, 0.2 μg/mL in 20 mM tris pH 7.5, 8 mM CaCl2, 119 mM NaCl, 20% Glycerol, 0.05% Brij 35, Cat #SAE0174-50UG, Sigma-Aldrich) was activated with 1 mM APMA (from 100 mM DMSO stock, Cat #AS—71158, AnaSpec) for 1 h at 37° C. Then, dilution series of the activated MMP-2 and of PA14-filtrate were prepared in PBS. SensoLyte 520 generic MMP substrate (Cat #AS—71158, AnaSpec) was diluted 1:100 in PBS. […] 10 μL dilution series was mixed with 10 μL MMP substrate or LasB substrate and fluorescence (λex=490 mn, λem=520 nm and λex=320 mn, λem=420 nm, for MMP substrate and LasB substrate, respectively) was recorded for 10 min (10 s interval).

For series [7], the system named is P. aeruginosa PAO1 biofilms. Briefly: P. aeruginosa biofilm staining in the flow cell. The class given is cell-based, Pseudomonas aeruginosa PAO1. The following applies: 500 nM in medium, 4 h accumulation, flow 3 mL/h. The procedure:
Colonies of PAO1 wt labelled with the red fluorescent protein mCherry (pMP7605) were picked from a LB agar plate and transferred to 10 mL LB medium with Gentamicin 60 μg/ml to start an overnight culture. Incubation was done at 37° C. and 180 rpm overnight. A fresh culture was inoculated to an OD600nm of 0.02 (10 mL LB with Gentamicin 60 μg/mL) and incubated until the exponential growth phase was reached (OD600nm of 0.4 to 0.8). The bacterial suspension was diluted again to an OD600m of 0.1 and 300 μL were injected into a six-channel μ-slide (ibidi, Germany). The settling time was 30 min. The flow of 1:5 diluted LB medium with Gentamicin 60 μg/ml was 3 mL/h. The biofilms were grown in a heat system (ibidi, Germany) at 30° C. and for 48 h.
After 48 h of biofilm growth, aggregates were stained by supplementing the divalent LecA ligand 57 and Fluorescein disodium salt 58 as a control to the medium. The final concentration of the supplements in the medium was 500 nM and constantly accumulated within the biofilm for 4 h by a flow rate of 3 mL/h. Washing was performed for 30 min with LB 1:5 diluted with Gentamicin 60 μg/mL.
Analysis was done by using a fluorescence microscope Leica DMi8. […] The green fluorescein signal was detected by an excitation wavelength of 460 to 500 nm and an emission wavelength of 512 to 542 nm. Snapshots were normalized by using the Fiji software. […]

The subject of series [8] is T3, LasB cleavable substrate Abz-Ala-Gly-Leu-Ala-Nba (SEQ ID NO 3, labelled).
T3 sequence: AGLA

Series [9] has as its system T4, LecA-targeted prodrug 36 (peptide-based prodrug with the linker Ala-Gly-Leu-Ala, SEQ ID NO 3, between a LecA-targeting galactoside and fluoroquinolone 2).
T4 sequence: AGLA

T1 sequence (Q05097 whole entry): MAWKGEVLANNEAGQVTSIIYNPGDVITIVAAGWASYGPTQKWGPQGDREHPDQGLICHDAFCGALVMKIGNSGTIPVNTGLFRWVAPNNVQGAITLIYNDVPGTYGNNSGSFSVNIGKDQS

For the compound `O=C(CCc1ccc(O[C@@H]2OC(CO)[C@H](O)C(O)C2O)cc1)Nc1ccc(CN(CCc2cn(CCOCCOCCOCCNC(=S)Nc3ccc4c(c3)C(=O)OC43c4ccc(O)cc4Oc4cc(O)ccc43)nn2)Cc2ccc(NC(=O)CCc3ccc(O[C@@H]4OC(CO)[C@H](O)C(O)C4O)cc3)cc2)cc1` (stereo partly shown) [Compound 57], the Kd (commonly the concentration at which binding is half-saturated) in [1] was 19.3 ± 10.5 nM; in [2] (ITC, TBS/Ca2+ buffer, 5% DMSO, 25° C.), “High affinity”; in series [3], 1050 nM. For the same compound, the degradation in buffer entry in series [4] was “did not show any degradation”.

For the compound `CC(C)C[C@H](N)C(=O)N[C@@H](C)C(=O)N[C@H]1CCN(c2cc3c(cc2F)c(=O)c(C(=O)O)cn3C2CC2)C1` [Compound 35, 7-((S)-3-((S)-2-((S)-2-amino-4-methylpentanamido)propanamido)pyrrolidin-1-vl)-1-cyclopropyl-6-fluoro-4-oxo-1,4-dihydroquinoline-3-carboxylic acid], in series [5], the “release of free drug from dipeptide-conjugates” value is given as “very slow; also recorded: only slowly released their antibiotic cargo”.

`C#CCCN(Cc1ccc(NC(=O)CCc2ccc(O[C@@H]3OC(CO)[C@H](O)C(O)C3O)cc2)cc1)Cc1ccc(NC(=O)CCc2ccc(O[C@@H]3OC(CO)[C@H](O)C(O)C3O)cc2)cc1` (stereo partly shown) [Compound 55]: the Kd stood at 9.9 ± 0.5 nM in series [1] and 47.2 ± 11.3 nM in [2].

For the compound “Abz-Ala-Gly-Leu-Ala-Nba ([2Abz]AGLA-Nba) [LasB-substrate]”, the “cleavage of FRET substrate by MMP-2” value in series [6] was “rather stable; also recorded: very weak turnover”.

Consider `CC1=CC(C)=[N+]2C1=Cc1ccc(CCC(=O)NCCCN=[N+]=[N-])n1[B-]2(F)F` [BDP FL azide], for which the biofilm staining entry in series [7] is listed as “did not show any enrichment”.

On to “matrix-metalloprotease 2 (MMP-2), activated with APMA”, for which the “turnover of the LasB-substrate in a FRET-based cleavage assay (serial dilution of activated MMP-2)” value in series [8] was “Only a very weak turnover of the LasB-substrate was observed in a FRET-based cleavage assay at very high concentrations (>50 ng/mL final) of MMP-2”. Besides, the “Stability of prodrug 36 in presence of activated MMP-2, monitored by HPLC-MS” value in series [9] is “No detectable metabolism was observed after 20 min or 3 d at 37 °C”.

Compound `CC(C)C[C@H](NC(=O)CNC(=O)[C@H](C)NC(=O)CCCCCn1cc(CCN(Cc2ccc(NC(=O)CCc3ccc(O[C@@H]4OC(CO)[C@H](O)C(O)C4O)cc3)cc2)Cc2ccc(NC(=O)CCc3ccc(O[C@@H]4OC(CO)[C@H](O)C(O)C4O)cc3)cc2)nn1)C(=O)N[C@@H](C)C(=O)N[C@H]1CCN(c2cc3c(cc2F)c(=O)c(C(=O)O)cn3C2CC2)C1` (stereo partly shown) [Compound 68] displayed a Kd in [2] of 36 ± 48 nM.

Consider `CC(C)C[C@H](N)C(=O)N[C@@H](C)C(=O)N1CCN(c2cc3c(cc2F)c(=O)c(C(=O)O)cn3C2CC2)CC1` [Compound 19, Leu-Ala-ciprofloxacin-conjugate], for which, in [5], the “release of free drug from dipeptide-conjugates” value is “very slow; also recorded: only slowly released their antibiotic cargo”.
